From patent publication EP4368729A1, “MOLECULES TARGETING RIBOSOMAL PROTEIN RPL40 FOR USE IN COSMETICS AND THE TREATMENT OF DISEASES OF THE SKIN” (Merck Patent GmbH, priority 2022, dated 2024)
Entries after “also recorded” stand apart in the source; their conditions may differ.

Target: T1, rpL40 (Saccharomyces cerevisiae, UniProt P0CH08)
T1 construct: endogenous in cells; host or cells: S. cerevisiae diploid strain (BY2n / BY4743 background) co-transformed with the TE-FF and REN reporter plasmids
T1 sequence (P0CH08 77-128): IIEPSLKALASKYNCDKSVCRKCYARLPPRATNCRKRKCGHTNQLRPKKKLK
Experiment: Biological activity of prospective L40 binders: tropoelastin-firefly / renilla dual luciferase reporter in yeast cells
Format: cell-based
Conditions: treatment at 1nM, 10nM, 100nm, 1µM, 10µM and 100µM; replicates n=3; Figs. 3-5
Description: The present invention will now be described further in the following examples with reference to the accompanying Figures, nevertheless, without being limited thereto. […] The wildtype (abbreviated WT) is shown as a red dot. […] Replicates n=3, and treatment was made at 1nM, 10nM, 100nm, 1µM, 10µM, and 100µM concentration of compounds.
Wildtype (BY2n) and variant ribosomal protein yeast strains (Kelly DE, Lamb DC, Kelly SL. Genome-wide generation of yeast gene deletion strains. Comp Funct Genomics. 2001;2(4):236-42. doi: 10.1002/cfg.95. PMID: 18628917; PMCID: PMC2447215), that were co-transformed with the tropoelastin-firefly and the renilla protein expression reporter plasmids were used for overnight cultures using single colony inoculation. Cell density (OD600) was determined using a Hitachi U_3000 spectrophotometer. […]
Dual luciferase assay readouts were performed with the GloMax Multi Detection System using the Dual-Luciferase® Reporter Assay System (Promega). For each dual luciferase luminescence measurement, 50 µl of a cell culture (5×10^5 cells) were transferred into a 96-well plate and lysed through addition of 20 µl passive lysis buffer (Promega) for one minute, following the instruction of the supplier. FF luminescence readout was detected upon addition of 50 µl of LAR II substrate, and then REN luminescence signal was recorded after the addition of 50 µl Stop & Glo® substrate. […]

With CCCC(Oc1cccc(C(=N)N)c1)C(=O)Nc1ccc2c(c1)S(=O)(=O)c1ccccc1-2 (stereo not shown) [Compound 22] the “translation in yeast cells” value was “decreasing translation; also recorded: lowered translation”.
